Values of other authors as cited in PMC9549396 (Proceedings of the National Academy of Sciences of the …, 2022).

Biological target: PI3KC2β (Homo sapiens, UniProt O00750)
Assay: lipid kinase activity inhibition
Format: biochemical

PI3KC2β, sequence (O00750 whole entry): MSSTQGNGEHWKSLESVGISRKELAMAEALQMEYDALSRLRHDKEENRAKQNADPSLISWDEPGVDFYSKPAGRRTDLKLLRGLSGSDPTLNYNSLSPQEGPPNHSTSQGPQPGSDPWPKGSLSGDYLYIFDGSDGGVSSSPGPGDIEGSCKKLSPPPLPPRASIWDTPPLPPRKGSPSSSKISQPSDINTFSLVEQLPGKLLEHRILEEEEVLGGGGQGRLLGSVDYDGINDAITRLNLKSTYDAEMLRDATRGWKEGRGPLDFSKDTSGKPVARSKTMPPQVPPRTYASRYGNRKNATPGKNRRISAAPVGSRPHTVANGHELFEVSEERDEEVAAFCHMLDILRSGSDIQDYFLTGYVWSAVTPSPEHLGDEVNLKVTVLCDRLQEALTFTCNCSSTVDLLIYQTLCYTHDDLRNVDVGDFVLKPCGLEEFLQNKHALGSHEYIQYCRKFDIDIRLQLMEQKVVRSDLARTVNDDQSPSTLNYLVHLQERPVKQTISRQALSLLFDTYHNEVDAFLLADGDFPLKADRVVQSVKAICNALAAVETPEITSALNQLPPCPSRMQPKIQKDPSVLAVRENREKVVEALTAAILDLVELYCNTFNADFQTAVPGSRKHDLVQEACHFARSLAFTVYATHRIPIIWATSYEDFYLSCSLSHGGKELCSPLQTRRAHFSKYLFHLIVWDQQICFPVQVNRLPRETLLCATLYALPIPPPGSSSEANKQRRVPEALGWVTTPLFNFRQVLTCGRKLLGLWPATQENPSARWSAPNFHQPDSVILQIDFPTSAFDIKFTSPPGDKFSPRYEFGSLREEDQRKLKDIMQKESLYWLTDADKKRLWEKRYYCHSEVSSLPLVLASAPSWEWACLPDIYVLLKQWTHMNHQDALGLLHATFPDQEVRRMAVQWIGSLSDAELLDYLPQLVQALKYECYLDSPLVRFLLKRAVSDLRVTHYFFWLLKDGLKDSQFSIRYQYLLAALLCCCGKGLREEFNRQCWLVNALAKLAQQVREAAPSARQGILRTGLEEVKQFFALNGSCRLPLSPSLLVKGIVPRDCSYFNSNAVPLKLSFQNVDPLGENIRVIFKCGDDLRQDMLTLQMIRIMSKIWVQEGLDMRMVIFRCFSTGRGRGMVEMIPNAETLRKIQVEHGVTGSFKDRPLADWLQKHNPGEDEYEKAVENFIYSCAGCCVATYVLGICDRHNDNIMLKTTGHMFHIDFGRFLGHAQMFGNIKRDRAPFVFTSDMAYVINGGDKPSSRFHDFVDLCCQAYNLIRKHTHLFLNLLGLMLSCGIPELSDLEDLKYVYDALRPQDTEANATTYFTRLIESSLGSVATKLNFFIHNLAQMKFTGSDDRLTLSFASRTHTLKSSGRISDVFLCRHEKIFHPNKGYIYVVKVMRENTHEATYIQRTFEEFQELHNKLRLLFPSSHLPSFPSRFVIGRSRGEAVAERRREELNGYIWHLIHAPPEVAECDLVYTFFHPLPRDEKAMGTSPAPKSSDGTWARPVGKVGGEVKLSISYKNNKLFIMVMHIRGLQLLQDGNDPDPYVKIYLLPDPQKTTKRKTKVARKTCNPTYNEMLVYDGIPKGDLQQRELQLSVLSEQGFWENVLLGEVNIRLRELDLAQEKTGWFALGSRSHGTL

IC50: 1500 nM
Substance: PITCOIN2
